From PMC2806525, “Proteinase-activated receptor-2 mediated inhibition of TNFα-stimulated JNK activation — A novel paradigm for Gq/11 linked GPCRs” (Cellular Signalling, 2010)
Entries after “also recorded” stand apart in the source; their conditions may differ.

Experiments:
[1] = molecular target: T1, human PAR2 (Homo sapiens, UniProt P55085); assay: TNFα-stimulated JNK phosphorylation (Western blot), PAR2 NCTC2544 cells (clone G); format: cell-based; conditions: pre-incubation 30 min, TNFα 10 ng/ml 30 min
T1 construct: expressed in transfected cells
T1 sequence (P55085 26-397): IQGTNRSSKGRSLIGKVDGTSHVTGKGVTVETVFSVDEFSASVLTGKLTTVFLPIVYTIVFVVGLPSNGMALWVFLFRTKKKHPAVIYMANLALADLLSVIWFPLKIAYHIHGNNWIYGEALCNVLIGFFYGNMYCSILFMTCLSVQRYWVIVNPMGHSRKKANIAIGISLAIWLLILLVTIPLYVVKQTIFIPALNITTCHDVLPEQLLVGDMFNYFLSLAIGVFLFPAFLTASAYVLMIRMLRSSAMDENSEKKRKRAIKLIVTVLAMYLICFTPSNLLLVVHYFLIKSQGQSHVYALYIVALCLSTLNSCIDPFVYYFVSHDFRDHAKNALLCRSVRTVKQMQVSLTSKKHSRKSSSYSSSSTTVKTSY
Description: (§1) Human skin epithelial cells NCTC2544 were maintained in M199 medium with Earl's salt supplement, 10% (v/v) foetal calf serum, L-glutamine (27 µg/ml), penicillin (250 U/ml), and streptomycin (25 mg/ml). NCTC2544 cells stably expressing human PAR2 (clone G) were maintained in complete M199 medium containing 400 μg/ml of Geneticin for selection pressure and passaged using Versene (2% EDTA/PBS). EAhy-926 cells were produced by hybridizing human umbilical vein endothelial cells (HUVECs) with the epithelial cell line A549 [27] and maintained in Dulbecco's Modified Eagle's Medium (DMEM) supplemented with 10% foetal calf serum (FCS), hypoxanthine/aminopterin/thymidine (HAT supplement), penicillin (250 U/ml) and streptomycin (25 mg/ml), and cells were passaged using Versene.
(§2) Proteins were separated by 10% SDS–PAGE and transferred onto nitrocellulose. […]
(§3) Fig. 1 PAR2 activation mediates inhibition of TNFα-stimulated JNK activity and phosphorylation in PAR2 NCTC2544 cells. […] Samples were assessed for JNK activity (Panel A) or phospho-JNK levels (Panel C) as outlined in the Methods section. Gels from JNK assays were quantified (Panel B). Each value represents the mean ± s.e.m from at least 4 experiments and data was quantified by densitometry. ⁎P < 0.05, ⁎⁎P < 0.01 compared to TNFα alone.

[2] = molecular target: T1, human PAR2; assay: TNFα-stimulated JNK activity (in vitro c-Jun phosphorylation), PAR2 agonist pre-incubation, PAR2 NCTC2544 cells (clone G); format: cell-based; conditions: pre-incubation 30 min, TNFα 10 ng/ml 30 min
Description: as §1
To measure JNK activity, cells were stimulated as appropriate and the reaction terminated by rapid aspiration and the addition of ice-cold PBS. […] Phosphorylation of GST-c-Jun was then determined by autoradiography. […]
as §3
Fig. 4 Concentration response effects of PAR2 peptides for activation of JNK and inhibition of TNFα-stimulated JNK. PAR2 expressing NCTC2544 cells (clone G) were incubated with increasing concentrations of SLIGKV-OH or 2f-LIGKV-OH for 30 min and assayed for JNK activity (Panel B) or stimulated for a further 30 min with TNFα (+) before JNK activity was assessed (Panel A). Samples were assessed for JNK activity as outlined in the Methods section. Gels from JNK assays were quantified (Panel C). Each value represents the mean ± s.e.m from at least 4 experiments and data was quantified by densitometry.

[3] = molecular target: T1, human PAR2; conditions: ref [17]; cited from earlier work
Excerpt: (§4) Thus, we can discern two agonist-mediated directed events which relate to the activation of JNK. This type of m ...

[4] = test system: TNFR1/RIP; assay: TNFR1/RIP complex formation (TNFR1 immuno-precipitation, RIP immuno-blot), PAR2 expressing cells; format: cell-based, human; conditions: TNFα 10 ng/ml 30 min, versus basal
Description: as §1
Proteins were separated by 10% SDS–PAGE and transferred onto nitrocellulose. The membranes were blocked for non-specific binding for 2 h in 2% BSA (w/v) diluted in NATT buffer (50 mM Tris–HCl, 150 mM NaCl, 0.2% (v/v) Tween-20). […]
For immuno-precipitation of TNFR1, equal amounts of pre-cleared cell lysates were incubated in Tris–HCl buffer, pH 7.4, containing 50 mM NaCl, 1 mM EDTA, 1 mM EGTA, 1% (w/v) Triton X-100, and 0.5% (w/v) Nonidet P-40, with 2 μg TNFR1 antibody, pre-coupled to protein G, for 3 h. […] Precipitates were assessed for TRADD or RIP content using Western blotting. […]

[5] = test system: JNK; assay: TNFα-stimulated JNK phosphorylation and activity, PAR2 NCTC2544 cells; format: cell-based, human; conditions: TNFα 10 ng/ml 30 min, untreated cells
Description: as §1, §2
To measure JNK activity, cells were stimulated as appropriate and the reaction terminated by rapid aspiration and the addition of ice-cold PBS. […] Phosphorylation of GST-c-Jun was then determined by autoradiography.
Fig. 6 Gq/11 is essential for PAR2 mediated inhibition of JNK activation by TNFα. […] Samples were assessed for phospho-JNK levels (Panels A and D) or JNK activity (Panel B) as outlined in the Methods section. Gels from JNK activity assays were quantified by densitometry (Panel C). […]

[6] = test system: TNFR1/TRADD; assay: TNFR1/TRADD complex formation (TNFR1 immuno-precipitation, TRADD immuno-blot), PAR2 expressing cells; format: cell-based, human; conditions: TNFα 10 ng/ml 30 min, versus basal
Description: as §1
Proteins were separated by 10% SDS–PAGE and transferred onto nitrocellulose. The membranes were blocked for non-specific binding for 2 h in 2% BSA (w/v) diluted in NATT buffer (50 mM Tris–HCl, 150 mM NaCl, 0.2% (v/v) Tween-20). The blots were then incubated overnight with 50 ng/ml primary antibody diluted in 0.2% BSA (w/v) in NATT buffer. The blots were washed with NATT buffer for 90 min and incubated with HRP-conjugated secondary antibody (20 ng/ml in 0.2% BSA (w/v) diluted in NATT buffer) for 2 h. After a further 90 min wash, the blots were subjected to ECL reagent and exposed to Kodak X-ray film.
For immuno-precipitation of TNFR1, equal amounts of pre-cleared cell lysates were incubated in Tris–HCl buffer, pH 7.4, containing 50 mM NaCl, 1 mM EDTA, 1 mM EGTA, 1% (w/v) Triton X-100, and 0.5% (w/v) Nonidet P-40, with 2 μg TNFR1 antibody, pre-coupled to protein G, for 3 h. Lysates were recovered by sequential washes in solubilisation buffer and in the same buffer lacking detergents. Precipitates were assessed for TRADD or RIP content using Western blotting.
Fig. 7 PAR2 mediated TNFR1 adapter protein disruption in PAR2 expressing cells. In Panel A, cells were pre-treated with peptide (100 μM) or vehicle prior to stimulation with TNFα (10 ng/ml) for 30 min. Lysates were immuno-precipitated for TNFR1 and immuno-blotted for TRADD and/or RIP, as outlined in the Methods section. In Panel B cells were pre-treated with 100 nM YM254890 or 3 μM GF109203X for 30 min prior to pre-treatment with peptide (100 μM), for 30 min, then incubated for a further 30 min with TNFα (10 ng/ml). TNFR1 immuno-precipitates were immuno-blotted for TRADD. Each gel is representative of at least three experiments.

[7] = test system: ERK; assay: ERK activation, PAR2 NCTC2544 cells; format: cell-based, human; conditions: response to TNFα; data not shown
Description: as §1

[8] = test system: β2; conditions: ref [34]; cited from earlier work
[9] = test system: β2; conditions: ref [34]; cited from earlier work; remark: listed apart in the source
Excerpt: as §4

For trypsin, the “effect on TNFα-stimulated JNK phosphorylation” value [1] is given as “strongly inhibited both the phosphorylation and activity of JNK”, the “effect on TNFα-stimulated JNK activity” value [2] is given as “strongly inhibited both the phosphorylation and activity of JNK; also recorded: concentration-dependent inhibition of subsequent TNFα-stimulated JNK activity; also recorded: strongly mediate an inhibition of TNFα mediated JNK signalling” and the “JNK activity on PAR2 activation” value [3] is given as “increase in JNK activity”.

With tumour necrosis factor-α [TNFα] the “RIP recovery with TNFR1 on stimulation” value [4] was “marked increase in both TRADD and RIP recovery”, the “TNFα stimulation of JNK phosphorylation and activity” value [5] was “stimulated JNK phosphorylation and activity as expected” and the “TRADD recovery with TNFR1 on stimulation” value [6] was “marked increase in both TRADD and RIP recovery”. For the same compound, the “ERK activation” value [7] was “negligible”.

For `CC(C)NCC(O)COc1cccc2ccccc12` (stereo not drawn) [propranolol], the “ERK activation, functional behaviour” value [8] is listed as “partial agonist” and the “cAMP accumulation, functional behaviour” value [9] is listed as “inverse agonist”.
